In patent US11059855B2, “Antimicrobial peptides and methods of making and using same” (priority 2017, dated 2021):
Read-outs that look alike come from different tables or passages of the source. No end group written: not given here.

How the values were obtained:
[1] = cited from earlier work
[2] = Membrane selectivity from high-throughput dye leakage screen; assay type: biochemical; conditions: PC = POPC, PG = POPG
Source text: (§1) This detects and quantifies the release of a small fluorescent dye (ANTS/DPX; MW=˜400 Da) encapsulated in LUVs after addition of library peptides. Neutral POPC LUVs serve as a simple model for mammalian membranes, while charged POPG LUVs mimic bacterial membranes enriched in anionic lipids.

[3] = Tryptophan fluorescent binding assay
Source text: To further investigate why some peptides (i.e. 7D12, 7G6, 11D12, 24F1, and 28H6) show selectivity for membrane types we measured peptide binding and secondary structural changes to vesicles containing binary mixtures of POPC and POPG lipids. FIGS. 10a-10e show the changes in the CD and tryptophan fluorescence spectra for these peptides upon addition of LUVs for whom the ratio of POPG was elevated from 0 to 100%. […] Consistent with the POPC/POPG leakage assay, these lipid selective peptides show little or no binding to POPC, which bind strongly to POPG. […] All other peptides have tryptophan fluorescence peaks around 350 nm, indicative of monomeric peptides. Addition of LUVs to 28H6 results in higher intensity and smaller width of the peak indicative of membrane binding. Remarkably, the CD spectra of 28H6 change from a helical aggregate in solution or POPC LUVs, to beta-strand conformations in the presence of anionic POPG lipids. Increasing the temperature of 28H6 with POPG vesicles can destabilize the beta-strand structure and reverse it to helix as the conformation of 28H6 with POPC (Table 8).

S. aureus = test: Bacterial minimum inhibitory concentration (MIC), S. aureus; assay type: cell-based, Staphylococcus aureus; conditions: 75 μM maximum tested; NDA = not determinable
Description: (§2) Escherichia colt strain ATCC 25922, Staphylococcus aureus strain ATCC 25923, and Pseudomonas aeruginosa strain ATCC PAO1 were used in this study. Overnight cultures were subcultured to log phase (OD600=0.3-0.6) after which cell counts were determined by measuring the OD600 (OD600 1.0=1.5×10^8 CFU/mL for S. aureus, 5×10^8 CFU/mL for E. colt, and 2.04×10^8 CFU/mL for P. aeruginosa). Bacteria in minimal media mere added to serially diluted peptides and incubated for 3 hr, followed by the addition of full growth media. After overnight incubation, the optical density of the wells was recorded on a plate reader to determine whether they were sterilized (OD<0.08) or were at stationary phase growth (OD600>0.5). Intermediate values, which were rare, were considered positive for growth. Average minimum sterilizing concentrations were calculated from the lowest peptide concentration that sterilized the bacteria in each serial dilution. The samples were done in sextuplet.

[4] = Circular dichroism secondary structure (Dichroweb), with POPG; assay type: physicochemical
Description: (§3) Dichroweb software analyzes the secondary structure of LDKA peptides from circular dichroism spectroscope. The table presents the percentage of each helix and strand structure at different temperature. The data are analyzed using CONTIN-LL method and Reference Set 4 (Optimised for 190-240 nm).
(§4) Peptide solutions (peptide concentration is 50 μM) were titrated with POPC and POPG LUVs (50, 100, 250, 500, 1000 μM) and the corresponding changes CD spectra collected. Analysis of these spectra using CD tools and Dichroweb provides an ensemble average of the changes in secondary structure in the presence of POPC and POPG LUVs (dichroweb.cryst.bbk.ac.uk), which gives a direct measure of the binding free energies for each peptide.

[5] = Circular dichroism secondary structure (Dichroweb), peptide only; assay type: physicochemical; conditions: 20 °C
Description: as §3, §4

P. aeruginosa = test: Bacterial minimum inhibitory concentration (MIC), P. aeruginosa; assay type: cell-based, Pseudomonas aeruginosa; conditions: 75 μM maximum tested; NDA = not determinable
Description: as §2

[6] = test system: methicillin-resistant Staphylococcus aureus (MRSA); assay type: cell-based; conditions: 75 μM maximum tested; NDA = not determinable
[7] = ANTS/DPX leakage assay, POPC; assay type: biochemical; conditions: P:L = 1:1000, pH 7 phosphate buffer
Description: (§5) 5 mM ANTS and 12.5 mM DPX were entrapped in 0.1 μm diameter extruded vesicles with lipids. Gel filtration chromatography of Sephadex G-100 (GE Healthcare Life Sciences Inc.) was used to remove external free ANTS/DPX from LUVs with entrapped contents. […] Leakage was measured after 3 hr incubation. 10% Triton was used as the positive control to measure the maximum leakage of the vesicle. Fluorescence emission spectra were recorded using excitation wavelength (Ex: 350 nm) and emission wavelength (Em: 510 nm) for ANTS/DPX using Synergy H1 Hybrid Multi-Mode Reader.
as §1

[8] = 3-kDa dextran macromolecule release assay, POPG; assay type: biochemical; conditions: P:L = 1:1000, pH 7 phosphate buffer
[9] = Pore-size characterization by 3-kDa dextran release; assay type: biochemical; conditions: ‡Large pore for PG only
Source text: Eight LDKA peptides with different lipid selectivity and pore sizes were selected from the high-throughput screen and sequenced. […] The most common mutation is L to A, occurred 13 times and in 7 out of the 8 peptides, followed by A to L, which occurred 6 times in 5 peptides, L to D which occurred 3 times in 3 peptides, and L to P that occurred once. Lysine (K) is not favorable to be shown at the position 6, 8, 10, 12, and 13, which is the non-polar face of the helical structure. […] More specifically, the analogs only induce leakage from anionic POPG vesicles have 4-5 leucines, which is less than the analogs that can porate both POPC and POPG vesicles and have 6-7 leucines in their sequences.

[10] = ANTS/DPX leakage assay, POPG; assay type: biochemical; conditions: P:L = 1:1000, pH 7 phosphate buffer
Description: as §5, §1

[11] = Circular dichroism secondary structure (Dichroweb), with POPC; assay type: physicochemical
Description: as §3, §4

[12] = test system: ciprofloxacin-resistant E. coli
Description: “N.D.” means “not determined”.
Ceftazidime is active on the bacteria's cell wall and interferes with bacterial cell wall formation.^38,39 Ciprofloxacin is able to inhibit DNA gyrase, type II topoisomerase, and topoisomerase IV to separate bacterial DNA and inhibits cell division.^40 Streptomycin and gentamicin are antibiotics that can interrupt and inhibit protein synthesis.^41,42 E. coli strain ATCC 25922 cultures were grown in the presence of each of these antibiotics at elevated concentration for 10 generations.

Escherichia coli biofilm = test: Activity against biofilm, E. coli; assay type: cell-based; conditions: 67-150 μM peptide, 3 hr treatment
Description: (§6) Selected analogues were tested with each (13A). Escherichia coli biofilm, (13B). Staphylococcus aureus biofilm, and (13C) Pseudomonas aeruginosa biofilm.
(§7) However, most of the LDKA analogues fail to treat S. aureus and P. aeruginosa biofilms. Only K7H and 7F3 are capable to reduce S. aureus biofilms by ˜50% with 100 μM peptide concentration, and none of the analogues work against P. aeruginosa biofilms (FIGS. 13a-13c).

Hemolysis assay = assay type: cell-based, human; conditions: human
Description: (§8) Fresh human red blood cells were obtained from Interstate Blood Bank, Inc., and thoroughly washed in PBS until the supernatant was clear. hRBC concentration was determined using a standard hemocytometer. In hemolysis assays serial dilutions of peptide were prepared, followed by the addition of 2×10^8 hRBC/mL. After incubation for 1 hr at 37° C. the cells were centrifuged and the released hemoglobin was measured by optical absorbance of the heme group (410 nm). Negative control was buffer only (0% lysis), and the positive control was 20 μM melittin and distilled water (100% lysis). The samples were done in triplicate.

human red blood cells = test: Hemolysis assay; assay type: cell-based
Description: as §8

[13] = test system: Staphylococcus aureus biofilm; test: Activity against biofilm, S. aureus; assay type: cell-based; conditions: 100 μM peptide concentration, 3 hr treatment
Description: as §6, §7

[14] = 3-kDa dextran macromolecule release assay, POPC; assay type: biochemical; conditions: P:L = 1:1000, pH 7 phosphate buffer
Description: Several different size dextrans were prepared and labelled with both TAMRA and biotin. Conjugated dextran was entrapped in POPC LUVs as described above. External dextran was removed by incubation with immobilized streptavidin. Streptavidin labelled with an Alexa-488 fluorophore was added during the leakage experiment with the peptide as previous described.^5 The sample was then incubated for 3 hr before measuring Alexa-488 fluorescence. A control without added peptide served as the 0% leakage signal and addition of 0.05% vol. Triton X-100 was used to determine 100% leakage.

[15] = provided by the distributor, GenScript

Substance | Membrane selectivity (POPC vs POPG vesicles) [2] | Peptide-POPG, Helix ([4]; 20 °C) [%] | Peptide-POPG, Strand ([4]; 20 °C) [%] | Peptide-POPG, Helix ([4]; 45 °C) [%] | Peptide-POPG, Strand ([4]; 45 °C) [%] | Peptide-POPG, Helix ([4]; 70 °C) [%] | Peptide-POPG, Strand ([4]; 70 °C) [%] | Peptide-POPG, Helix ([4]; 95 °C) [%] | Peptide-POPG, Strand ([4]; 95 °C) [%] | Peptide-only, Strand [5] [%] | Minimum Inhibitory Concentration, P. aeruginosa (P. aeruginosa) | ANTS/DPX release, POPC [7] [%] | 3-kDa Dextran release, POPG [8] [%] | Pore size [9] | ANTS/DPX release, POPG [10] [%] | Peptide-POPC, Helix ([11]; 20 °C) [%] | Peptide-POPC, Strand ([11]; 20 °C) [%] | Peptide-POPC, Helix ([11]; 45 °C) [%] | Peptide-POPC, Strand ([11]; 45 °C) [%] | Peptide-POPC, Helix ([11]; 70 °C) [%] | also measured
GLLDDAKLLAKLAGW-AMIDE (GLLDDAKLLAKLAGW-NH2) [Peptide 7D12] | PG > PC | 78 | 2 | 66 | 3 | 48 | 6 | 31 | 13 | 11 | no activity and NDA | 6 | 17 | Small | 103 | 30 | 20 | 26 | 21 | 27 | Solubility, DPBS pH 7.1 ([1]; pH 7.1): <0.1 mg/mL; Binding onto POPC [3]: does not bind; Minimum Inhibitory Concentration, S. aureus (S. aureus): no activity and NDA; Minimum Inhibitory Concentration, MRSA [6]: NDA; Peptide-POPC, Strand ([11]; 70 °C): 22%; Peptide-POPC, Helix ([11]; 95 °C): 22%; Peptide-POPC, Strand ([11]; 95 °C): 24%
H-GLADLAKLLLKLLGW-NH2 [Peptide 7F3] | Non-selective | 52 | 12 | 58 | 7 | 66 | 2 | 76 | 2 | 4 | NDA | 88 | 46 | Small | 106 | 82 | 1 | 77 | 2 | 76 | Solubility, DMSO [1, 15]: 15000 µg/mL; Solubility, DPBS pH 7.1 [1, 15]: <0.1 mg/mL; Solubility, Ultrapure Water [1, 15]: 5000 µg/mL; Peptide-only, Helix [5]: 75%; MIC, ciprofloxacin-resistant E. coli [12]: completely fail; Elimination of E. coli biofilm (Escherichia coli biofilm): ~50%; HC50 at 1 hr (Hemolysis assay): 1100 nM; Hemolytic activity (in words) (human red blood cells): significantly haemolytic; Reduction of S. aureus biofilms [13]: ~50%; 3-kDa Dextran release, POPC [14]: -3%; Peptide-POPC, Strand ([11]; 70 °C): 3%; Peptide-POPC, Helix ([11]; 95 °C): 70%; Peptide-POPC, Strand ([11]; 95 °C): 4%
